Consider nine compounds from US20150011740A1, “FLUORINE-CONTAINING WATER SOLUBLE PLATINUM COMPLEXES FOR TUMOR TREATMENT AND PROCESS OF PREPARING SAME” (GUDUI BIOPHARMA TECHNOLOGY INC., priority 2011, published 2015).

Where two headings read alike, the source gives them in different places.

One may read the half-life as how long it takes for the measured level to halve. The low end stands for rapid decline, the high end for slow decline. What is called ILS is how much longer treated animals lived than controls. A high value points to a large benefit in survival.

The conditions of data set [1]: buffer, pH 7.
Data set [2] in a line: Experiment-2: stability, half-life in phosphate buffer (PBS) pH 7 at room temperature. The conditions noted are these: phosphate buffer (PBS) pH 7, room temperature.
Another data set can be described thus: physchem. The conditions noted are these: buffer, pH 7.
A further data set relates to L1210 tumor cells. The data set is described as follows: Experiment-3: antitumor efficacy in L1210 tumor-bearing CDF1 mice (ILS). The data set is classed as in vivo. The conditions noted are these: for Weight Changes: first day to seventh day. On the procedure:
In the following test, antitumor efficacy studies were performed using 8-9 weeks old female CDF1 mice, the average weight of the animal is 20-25 grams (The experimental animals were purchased from Vital River Laboratory Animal Technology Co. Ltd.). L1210 tumor cells (about 10^5 cells per mouse) were inoculated intraperitoneally. The fluorine-containing water-soluble platinum complexes were used to treat the tumor-bearing animals and the efficacy was compared with the clinical platinum antitumor drugs. […] Drugs were administered intraperitoneally on day 1 and day 4 after tumor cell transplantation. The number of experimental animals in each group was 6.
The increase in life span (ILS) is calculated as follows:
Wherein, St=the weighted median survival time of treated animals; Su=the weighted median survival time of untreated animals

A short description of data set [3]: Experiment-1: solubility in water at room temperature.
The conditions of data set [4]: background data of clinical drugs; cited from earlier work.
Where [5] appears, read: 1.25 mg/Kg i.p. day 1 and day 4.

Turning to “cis-[trans-(1R,2R)-diaminocyclohexane] Pt (II) (1-O-D-mannoside-propane-3-fluoro-3,3-dicarboxylate) [Example 9]”, the half-life in data set [1] was 48 h.

Compound “cis-[trans-(1R,2R)-diaminocyclohexane] Pt (II) (1-O-D-glucoside-propane-3-fluoro-3,3-dicarboxylate) [Example 1]” displayed a half-life in data set [2] of 44 h.

In turn, `O=C1[O][Pt]([NH]C2CC2)([NH]C2CC2)[O]C(=O)C1(F)CCOC1O[C@H](CO)[C@@H](O)[C@H](O)[C@H]1O` (stereo partly drawn) [Example 17, dicyclopropylamino platinum (II) (1-O-D-glucoside-propane-3-fluoro-3,3-dicarboxylate)] had a half-life in “physchem” of 62 h.

The compound `[NH2][Pt]1([NH2])[O]C(=O)C(F)(CCOC2O[C@H](CO)[C@@H](O)[C@H](O)[C@H]2O)C(=O)[O]1` (stereo partly drawn) [Example 3, diamine Pt (II) (1-O-D-glucoside-propane-3-fluoro-3,3-dicarboxylate)] had a half-life in “physchem” of 52 h. The half-life values of the last two compounds are within 1.5-fold of each other.

Turning to `[NH2][Pt]1([NH2])[O]C(=O)C(F)(COC2O[C@H](CO)[C@@H](O)[C@H](O)[C@H]2O)C(=O)[O]1` (stereo partly drawn) [Example 24, diamine platinum (II) (1-O-D-glucoside-ethane-2-fluoro-2,2-dicarboxylate)], in “physchem”, the half-life was 73 h.

With `N.N.O=C([O-])C1(C(=O)[O-])CCC1.[Pt+2]` [Carboplatin, carboplatin], in the data set on L1210 tumor cells (20 mg/Kg i.p. day 1 and day 4), the increase in lifespan (ILS) was determined as 10%, the “Survival Animals on Day 42” value is listed as 0/6 and the “Weight Changes” value is reported as “+0 g”. In addition, in the data set on L1210 tumor cells (40 mg/Kg i.p. day 1 and day 4), the ILS stood at 24%, the “Survival Animals on Day 42” value is recorded as 0/6 and the “Weight Changes” value is -0.3 g. Also, in the data set with L1210 tumor cells (80 mg/Kg i.p. day 1 and day 4), the ILS is reported as 55%, the “Survival Animals on Day 42” value is listed as 0/6 and the “Weight Changes” value was -1.2 g. The compound also yielded a solubility in data set [3] of 17.0 mg/1 mL H2O. The “Water Solubility” value in data set [4] is 17.0 mg/mL.

For `N.N.[Cl][Pt][Cl]` [Cisplatin, cisplatin], the ILS with L1210 tumor cells (setting [5]) was 36%; in the data set with L1210 tumor cells (2.5 mg/Kg i.p. day 1 and day 4) it was 100%. Besides, the “Survival Animals on Day 42” value in the data set with L1210 tumor cells (setting [5]) is listed as 0/6; with L1210 tumor cells (2.5 mg/Kg i.p. day 1 and day 4) it was 0/6; with L1210 tumor cells (5.0 mg/Kg i.p. day 1 and day 4), 3/6.

Turning to `O=C1[O][Pt]2([NH][C@@H]3CCCC[C@H]3[NH]2)[O]C(=O)C1(F)COC1O[C@H](CO)[C@@H](O)[C@H](O)[C@H]1O` (stereo partly drawn) [Example 23, cis-[trans-(1R,2R)-diaminocyclohexane]platinum (II) (1-O-D-glucoside-ethane-2-fluoro-2,2-dicarboxylate)], the half-life in “physchem” was 89 h.

Take `O=C1[O][Pt]2([NH][C@@H]3CCCC[C@H]3[NH]2)[O]C1=O` [Oxaliplatin, oxaliplatin]: the half-life in data set [2] was 24 h.
